Source: patent publication US12134599B2, “Solid forms” (River 3 Renal Corp., priority 2021, dated 2024)

Tests used:
[1] = Dynamic vapor sorption (DVS) analysis; type: physicochemical
physchem = conditions: 25 °C, water, thermodynamic from solid
Experimental: About 5 mg of crystalline Form E was weighed in 2 mL glass vials. 20 μL aliquots of each solvent were added to dissolve the compound at 25° C. Vortex and sonication were applied to assist dissolution. The maximum volume of each solvent added was 1 mL.

[2] = between about 0 to about 90% relative humidity (RH) at 25° C.

For O=C(N[C@@H]1CCCC[C@H]1O)c1cnc(OCC(F)(F)F)c(-c2ccc(Cl)c(Cl)c2)c1 [Form 2, 5-(3,4-dichlorophenyl)-N-((1R,2R)-2-hydroxycyclohexyl)-6-(2,2,2-trifluoroethoxy)nicotinamide], the “DVS total mass change” value [1, 2] was “about 2.1 wt. %”.

In the case of O=C(N[C@@H]1CCCC[C@H]1O)c1cnc(OCC(F)(F)F)c(-c2ccc(Cl)c(Cl)c2)c1 [Form A, 5-(3,4-dichlorophenyl)-N-((1R,2R)-2-hydroxycyclohexyl)-6-(2,2,2-trifluoroethoxy)nicotinamide], the “DVS total mass change” value [1, 2] is reported as “about 1.8 wt. %”.

In the case of O=C(N[C@@H]1CCCC[C@H]1O)c1cnc(OCC(F)(F)F)c(-c2ccc(Cl)c(Cl)c2)c1 [Form B, 5-(3,4-dichlorophenyl)-N-((1R,2R)-2-hydroxycyclohexyl)-6-(2,2,2-trifluoroethoxy)nicotinamide], the “DVS total mass change” value [1, 2] is reported as “about 0.3 wt. %”.

For O=C(N[C@@H]1CCCC[C@H]1O)c1cnc(OCC(F)(F)F)c(-c2ccc(Cl)c(Cl)c2)c1 [Form D, 5-(3,4-dichlorophenyl)-N-((1R,2R)-2-hydroxycyclohexyl)-6-(2,2,2-trifluoroethoxy)nicotinamide], the “DVS total mass change” value [1, 2] was “about 20 wt. %”.

With O=C(N[C@@H]1CCCC[C@H]1O)c1cnc(OCC(F)(F)F)c(-c2ccc(Cl)c(Cl)c2)c1 [Form E, 5-(3,4-dichlorophenyl)-N-((1R,2R)-2-hydroxycyclohexyl)-6-(2,2,2-trifluoroethoxy)nicotinamide] the solubility (physchem) was < 5000 µg/mL and the “DVS total mass change” value [1, 2] was “about 0.3 wt. %”.

For O=C(N[C@@H]1CCCC[C@H]1O)c1cnc(OCC(F)(F)F)c(-c2ccc(Cl)c(Cl)c2)c1 [Form H, 5-(3,4-dichlorophenyl)-N-((1R,2R)-2-hydroxycyclohexyl)-6-(2,2,2-trifluoroethoxy)nicotinamide], the “DVS total mass change” value ([1]; between about 0 to about 70% relative humidity (RH) at 25° C.) was “about 2.5 wt. %” and the “DVS total mass change” value ([1]; between about 70 to about 90% relative humidity (RH) at 25° C.) was “about 25 wt. %”.

With O=C(N[C@@H]1CCCC[C@H]1O)c1cnc(OCC(F)(F)F)c(-c2ccc(Cl)c(Cl)c2)c1 [Form I, 5-(3,4-dichlorophenyl)-N-((1R,2R)-2-hydroxycyclohexyl)-6-(2,2,2-trifluoroethoxy)nicotinamide] the “DVS total mass change” value [1, 2] was “about 10 wt. %”.
